Data taken from US20130204033A1, “ANTIPROLIFERATIVE COMPOUNDS, CONJUGATES THEREOF, METHODS THEREFOR, AND USES THEREOF” (Medarex, Inc., priority 2009, published 2013).
Like-named read-outs stand apart in the source and are kept apart here.

How the values were obtained:
Format in all cases: cell-based, human
Hep3B = assay: 3H thymidine proliferation assay, Hep3B
Outline: (§1)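 Tumour cells were plated at 1.0×10^4 per well and, after 3 h, treated with threefold serial dilutions of compound or conjugate. Total incubation was 72 h, with a 1.0 μCi ^3H-thymidine pulse over the last 24 h. Counts gave the 50% inhibition concentration (EC50).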

LNCaP = assay: 3H thymidine proliferation assay, LNCaP
Outline: as §1

U-87 MG [1] = assay: 3H thymidine proliferation assay, U-87 MG
Outline: as §1

UO-31 [2] = assay: 3H thymidine proliferation assay, UO-31
Outline: as §1

H740 = assay: 3H thymidine proliferation assay, H740
Outline: as §1

DMS53 = assay: 3H thymidine proliferation assay, DMS53
Outline: as §1

ZR-75 = assay: 3H thymidine proliferation assay, ZR-75
Outline: as §1

HL-60 [3] = assay: 3H thymidine proliferation assay, HL-60
Outline: as §1

CEM-C1 = assay: 3H thymidine proliferation assay, CEM-C1
Outline: as §1

Nomo-1 = assay: 3H thymidine proliferation assay, Nomo-1
Outline: as §1

U-87 MG [4] = assay: ATP luminescence proliferation assay, U-87 MG
Method: (§2) This example generally describes the procedures used to assay the antiproliferative activity of compounds of this invention or their conjugates. Human tumor cell lines were obtained from the American Type Culture Collection (ATCC), P.O. Box 1549, Manassas, Va. 20108, USA, and cultured according to instruction from the ATCC. Cells were seeded at 1.0×10^3 or 1.0×10^4 cells/well in 96-well plates for 3 h for ATP assays or ^3H thymidine assays, respectively. 1:3 serial dilutions of free (unconjugated) compounds or their conjugates were added to the wells. Plates were allowed to incubate for 24 to 72 h. The ^3H thymidine plates were pulsed with 1.0 μCi of ^3H-thymidine per well for the last 24 hours of the total incubation period, harvested, and read on a Top Count Scintillation Counter (Packard Instruments, Meriden, Conn.). ATP levels in the ATP plates were measured using the […]-GLO® Luminescent Cell Viability kit following the manufacturer's manual and read on a GLOMAX® 20/20 luminometer (both from Promega, Madison, Wis., USA). The EC50 values—the concentration at which an agent inhibits or reduces cell proliferation by 50% —were determined using PRISM™ software, version 4.0 (GraphPad Software, La Jolla, Calif., USA).
(§3) Using the ^3H thymidine or the ATP luminescence assay, or both, the activities of compounds of this invention were assayed against the following cancer cell lines: HCT-15 (colorectal cancer, multi-drug resistant (MDR)); Hep3B (liver cancer); LNCaP (prostate cancer, androgen receptor positive (AR^+)); MDA-MB-231 (breast cancer, estrogen receptor, progesterone receptor, and Her2 negative (triple negative)); A2058 (melanoma); U-87 MG (glioblastoma); NCI-H460 (NSCLC); A549 (NSCLC); HPAC (pancreatic cancer, primary); PC3 (prostate cancer, AR); BT474 (breast cancer, Her2 highly positive (Her2hi)); SKOV3 (ovarian cancer, Her2hi); 786-O (renal cancer); UO-31 (renal cancer, MDR); NCI-H740 (SCLC); DMS53 (SCLC); SK-BR3 (breast cancer, Her2hi); ZR-75 (breast cancer, estrogen receptor positive); OVCAR3 (ovarian cancer); HL-60 (APL); OVCAR8/Adr (ovarian cancer, MDR); CEM-Cl (ALL); Nomo-1 (AML); RPMI-8226 (MM)); Raji (lymphoma); SW-480 (colorectal cancer, metastatic); SW-620 (colorectal cancer); and H226 (lung cancer). (Not all compounds were assayed against all cell lines.)
(§4) Table 3 provides the data for the ATP luminescence proliferation assays, with an incubation period of 48, 72, or 96 h, as noted.

PC3 = assay: ATP luminescence proliferation assay, PC3
Method: as §2, §3, §4

BT474 = assay: ATP luminescence proliferation assay, BT474
Method: as §2, §3, §4

SKOV3 = assay: ATP luminescence proliferation assay, SKOV3
Method: as §2, §3, §4

UO-31 [5] = assay: ATP luminescence proliferation assay, UO-31
Method: as §2, §3, §4

HL-60 [6] = assay: ATP luminescence proliferation assay, HL-60
Outline: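 Read-out: luminescent ATP cell viability after 48, 72 or 96 h incubation, as noted, with 1:3 serial dilutions of unconjugated compounds or their conjugates. Plating was 1.0×10^3 cells/well, 3 h before dosing. EC50 = concentration giving 50% inhibition of proliferation.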

CEM-Cl = assay: ATP luminescence proliferation assay, CEM-C1
Method: as §2, §3, §4

SW-480 = assay: ATP luminescence proliferation assay, SW-480
Method: as §2, §3, §4

[7] = Homo sapiens, Hep3B, read-out: EC50, Hep3B, 3H thymidine method, 72 h incubation
[8] = Homo sapiens, LNCaP, read-out: EC50, LNCaP, 3H thymidine method, 72 h incubation
[9] = Homo sapiens, U-87 MG, read-out: EC50, U-87 MG, 3H thymidine method, 72 h incubation
[10] = Homo sapiens, UO-31, read-out: EC50, UO-31, 3H thymidine method, 72 h incubation
[11] = Homo sapiens, read-out: EC50, H740, 3H thymidine method, 72 h incubation
[12] = Homo sapiens, DMS-53, read-out: EC50, DMS53, 3H thymidine method, 72 h incubation
[13] = Homo sapiens, ZR75, read-out: EC50, ZR-75, 3H thymidine method, 72 h incubation
[14] = Homo sapiens, HL-60, read-out: EC50, HL-60, 3H thymidine method, 72 h incubation
[15] = Homo sapiens, CEM/C1, read-out: EC50, CEM-C1, 3H thymidine method, 72 h incubation
[16] = Homo sapiens, NOMO-1, read-out: EC50, Nomo-1, 3H thymidine method, 72 h incubation
[17] = Homo sapiens, 72 h, read-out: EC50 U-87 MG (72 h), ATP luminescence, U-87 MG, 72 h incubation
[18] = Homo sapiens, PC-3, 48 h, read-out: EC50 PC3 (48 h), ATP luminescence, PC3, 48 h incubation
[19] = Homo sapiens, BT-474, 48 h, read-out: EC50 BT474 (48 h), ATP luminescence, BT474, 48 h incubation
[20] = Homo sapiens, SK-OV-3, 72 h, read-out: EC50 SKOV3 (72 h), ATP luminescence, SKOV3, 72 h incubation
[21] = Homo sapiens, UO-31, 48 h, read-out: EC50 UO-31 (48 h), ATP luminescence, UO-31, 48 h incubation
[22] = Homo sapiens, SW480, 96 h, read-out: EC50 SW480 (96 h), ATP luminescence, SW480, 96 h incubation

CC[C@H](C)[C@H](NC(=O)[C@H]1CCCCN1C)C(=O)N(C)[C@H](C[C@@H](OC)c1nc(C(=O)N[C@H](CC(=O)OC)Cc2ccccc2)cs1)C(C)C [Compound 25]
EC50 (Hep3B; [7]): 305 nM | EC50 (LNCaP; [8]): 930 nM | EC50 (U-87 MG [1]; [9]): 271 nM | EC50 (UO-31 [2]; [10]): 435 nM | EC50 (H740; [11]): 347 nM | EC50 (DMS53; [12]): 515 nM | EC50 (ZR-75; [13]): > 3000 nM | EC50 (HL-60 [3]; [14]): 308 nM | EC50 (CEM-C1; [15]): 225 nM | EC50 (Nomo-1; [16]): 116 nM | EC50 (U-87 MG [4]; [17]): 357 nM | EC50 (PC3; [18]): 155 nM | EC50 (BT474; [19]): 166 nM | EC50 (SKOV3; [20]): 109 nM | EC50 (UO-31 [5]; [21]): 759 nM | EC50 (HL-60 [6]; Homo sapiens, HL-60, 48 h, read-out: EC50 HL-60 (48 h), ATP luminescence, HL-60, 48 h incubation): 224 nM | EC50 (CEM-Cl; Homo sapiens, CEM/C1, 72 h, read-out: EC50 CEM-C1 (72 h), ATP luminescence, CEM-C1, 72 h incubation): 176 nM | EC50 (SW-480; [22]): 261 nM

CC[C@H](C)[C@H](NC(=O)[C@H]1CCCCN1C)C(=O)N(C)[C@H](C[C@@H](OC)c1nc(C(=O)N[C@H](CCC(=O)OC)Cc2ccccc2)cs1)C(C)C [Compound 26]
EC50 (Hep3B; [7]): 18 nM | EC50 (LNCaP; [8]): > 3000 nM | EC50 (U-87 MG [1]; [9]): 5.2 nM | EC50 (UO-31 [2]; [10]): 50 nM | EC50 (H740; [11]): 3 nM | EC50 (DMS53; [12]): 99 nM | EC50 (ZR-75; [13]): > 300 nM | EC50 (HL-60 [3]; [14]): 0.45 nM | EC50 (CEM-C1; [15]): 22 nM | EC50 (Nomo-1; [16]): 0.36 nM | EC50 (U-87 MG [4]; [17]): 94 nM | EC50 (PC3; [18]): > 3000 nM | EC50 (BT474; [19]): 19 nM | EC50 (SKOV3; [20]): 38 nM | EC50 (UO-31 [5]; [21]): 240 nM | EC50 (HL-60 [6]; Homo sapiens, HL-60, 72 h, read-out: EC50 HL-60 (72 h), ATP luminescence, HL-60, 72 h incubation): 27 nM | EC50 (CEM-Cl; Homo sapiens, CEM/C1, 48 h, read-out: EC50 CEM-C1 (48 h), ATP luminescence, CEM-C1, 48 h incubation): 61 nM | EC50 (SW-480; [22]): 67 nM

CC[C@H](C)[C@H](NC(=O)[C@H]1CCCCN1C)C(=O)N(COC(=O)CC(C)C)[C@H](C[C@@H](O)c1nc(C(=O)N[C@@H](Cc2ccccc2)C(=O)OC)cs1)C(C)C [Compound 28]
EC50 (Hep3B; 3H thymidine method, 72 h incubation, read-out: EC50, Hep3B): 24 nM | EC50 (LNCaP; 3H thymidine method, 72 h incubation, read-out: EC50, LNCaP): 64 nM | EC50 (U-87 MG [1]; 3H thymidine method, 72 h incubation, read-out: EC50, U-87 MG): > 100 nM | EC50 (UO-31 [2]; 3H thymidine method, 72 h incubation, read-out: EC50, UO-31): > 100 nM | EC50 (H740; 3H thymidine method, 72 h incubation, read-out: EC50, H740): 5.8 nM | EC50 (DMS53; 3H thymidine method, 72 h incubation, read-out: EC50, DMS53): > 100 nM | EC50 (ZR-75; 3H thymidine method, 72 h incubation, read-out: EC50, ZR-75): 4.3 nM | EC50 (HL-60 [3]; 3H thymidine method, 72 h incubation, read-out: EC50, HL-60): 7.7 nM | EC50 (CEM-C1; 3H thymidine method, 72 h incubation, read-out: EC50, CEM-C1): 10 nM | EC50 (Nomo-1; 3H thymidine method, 72 h incubation, read-out: EC50, Nomo-1): 0.2 nM | EC50 (U-87 MG [4]; ATP luminescence, 72 h incubation, read-out: EC50 U-87 MG (72 h)): 18 nM | EC50 (PC3; ATP luminescence, PC3, 48 h incubation, read-out: EC50 PC3 (48 h)): 5.8 nM | EC50 (BT474; ATP luminescence, BT474, 48 h incubation, read-out: EC50 BT474 (48 h)): 12 nM | EC50 (SKOV3; ATP luminescence, SKOV3, 72 h incubation, read-out: EC50 SKOV3 (72 h)): 11 nM | EC50 (UO-31 [5]; ATP luminescence, UO-31, 48 h incubation, read-out: EC50 UO-31 (48 h)): 5.8 nM | EC50 (HL-60 [6]; ATP luminescence, HL-60, 72 h incubation, read-out: EC50 HL-60 (72 h)): 2.9 nM | EC50 (CEM-Cl; ATP luminescence, CEM-C1, 72 h incubation, read-out: EC50 CEM-C1 (72 h)): 11 nM | EC50 (SW-480; ATP luminescence, SW480, 96 h incubation, read-out: EC50 SW480 (96 h)): 36 nM
